Results from patent US11241438B2, “Formulations of an AXL/MER inhibitor” (Incyte Corporation, priority 2018, dated 2022).
Counter-ions that a name gives are not always drawn. Like-named read-outs stand apart in the source and are kept apart here.

Assays:
[1] = Solubility study in aqueous surfactant solutions; assay type: physicochemical; details: thermodynamic from solid, 37° C., after 60 minutes stirring, theoretical maximum 0.20 mg/ml, read-out: Concentration (solubility)
Method: The solubility of Compound I maleate was determined in aqueous solution in the presence of several surfactants at 37° C. The surfactants included sodium lauryl sulfate (SLS), poloxamer 188, and poloxamer 407 at a concentration of 0.2% (w/v) in water; a vessel without surfactant was included as a control. The experiment was performed in a Distek 2100 dissolution bath using 500 ml of media stirred at 100 RPM (USP type II dissolution apparatus). 100 mg of drug substance (free base equivalent) was added to the media to give a theoretical maximum concentration of 0.20 mg/ml. 5 ml samples were taken and filtered with a 0.45 micron GHP filter prior to analysis by HPLC. Listed below are the observed concentrations for the samples after 60 minutes of stirring time.

c-Mer [2] = molecular target: T1, c-Mer (Homo sapiens (Human), UniProt Q12866); assay: TAM enzymatic assay (HTRF), Mer; assay type: biochemical
T1 sequence (Q12866 21-999): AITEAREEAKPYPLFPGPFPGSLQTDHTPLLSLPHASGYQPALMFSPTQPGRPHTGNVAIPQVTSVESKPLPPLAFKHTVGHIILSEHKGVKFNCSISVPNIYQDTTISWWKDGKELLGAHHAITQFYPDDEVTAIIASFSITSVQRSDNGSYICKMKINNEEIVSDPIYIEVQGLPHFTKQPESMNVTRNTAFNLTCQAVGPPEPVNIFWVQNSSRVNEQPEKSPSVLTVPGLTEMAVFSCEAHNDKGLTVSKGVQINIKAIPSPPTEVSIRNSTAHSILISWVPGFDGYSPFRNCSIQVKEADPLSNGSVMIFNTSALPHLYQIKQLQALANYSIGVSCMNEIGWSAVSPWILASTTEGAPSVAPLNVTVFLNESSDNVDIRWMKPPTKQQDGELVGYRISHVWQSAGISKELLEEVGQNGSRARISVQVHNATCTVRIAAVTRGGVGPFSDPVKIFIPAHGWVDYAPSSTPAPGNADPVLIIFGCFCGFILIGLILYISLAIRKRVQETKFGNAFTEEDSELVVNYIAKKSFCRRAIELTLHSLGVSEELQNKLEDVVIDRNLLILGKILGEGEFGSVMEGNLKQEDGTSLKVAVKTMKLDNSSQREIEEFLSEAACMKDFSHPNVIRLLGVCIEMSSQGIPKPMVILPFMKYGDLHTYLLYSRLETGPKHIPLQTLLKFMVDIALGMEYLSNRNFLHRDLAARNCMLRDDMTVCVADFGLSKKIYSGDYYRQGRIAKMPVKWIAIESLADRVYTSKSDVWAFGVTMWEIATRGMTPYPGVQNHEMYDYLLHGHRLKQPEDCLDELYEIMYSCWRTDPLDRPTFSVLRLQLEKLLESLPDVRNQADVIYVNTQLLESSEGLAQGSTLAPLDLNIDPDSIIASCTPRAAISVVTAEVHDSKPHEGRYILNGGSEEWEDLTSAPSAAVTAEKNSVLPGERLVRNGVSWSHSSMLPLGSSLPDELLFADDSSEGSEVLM
Method: (§1) The kinase assay buffer contained 50 mM HEPES, pH7.5, 10 mM MgCl2, 1 mM EGTA, 0.01% NP-40 and 2 mM DTT. 0.1 ul test compounds dissolved in DMSO were transferred from compound plates to white 384-well assay plates (Greiner […] plates). The final concentration of DMSO was 1.25%. Enzyme solutions of 5.1 nM phosphor-Axl, or 0.0625 nM c-Mer (Carna Biosciences, 08-108), or 0.366 nM Tyro3 (Life Technologies, PR7480A) were prepared in assay buffer. A 1 mM stock solution of peptide substrate Biotin-[…]-amide SEQ ID NO: 1 (Quality Controlled Biochemicals, MA) dissolved in DMSO was diluted to 1 uM in assay buffer containing 2000 uM ATP. 4 ul enzyme solution (or assay buffer for the enzyme blank) was added to the appropriate wells in each plate, and then 4 ul/well substrate solution was added to initiate the reaction. The plate was protected from light and incubated at room temperature for 60 min. […] The plate was incubated for 1 h at room temperature, and HTRF (homogenous time resolved fluorescence) signal was measured on a PHERAstar FS plate reader (BMG labtech). Percentage of inhibition was calculated for each concentration and IC50 value was generated from curve fitting with GraphPad Prism software.

phosphor-Axl [3] = molecular target: T2, phosphor-Axl (Homo sapiens (Human), UniProt P30530); assay: TAM enzymatic assay (HTRF), Axl; assay type: biochemical
T2 sequence (P30530 26-894): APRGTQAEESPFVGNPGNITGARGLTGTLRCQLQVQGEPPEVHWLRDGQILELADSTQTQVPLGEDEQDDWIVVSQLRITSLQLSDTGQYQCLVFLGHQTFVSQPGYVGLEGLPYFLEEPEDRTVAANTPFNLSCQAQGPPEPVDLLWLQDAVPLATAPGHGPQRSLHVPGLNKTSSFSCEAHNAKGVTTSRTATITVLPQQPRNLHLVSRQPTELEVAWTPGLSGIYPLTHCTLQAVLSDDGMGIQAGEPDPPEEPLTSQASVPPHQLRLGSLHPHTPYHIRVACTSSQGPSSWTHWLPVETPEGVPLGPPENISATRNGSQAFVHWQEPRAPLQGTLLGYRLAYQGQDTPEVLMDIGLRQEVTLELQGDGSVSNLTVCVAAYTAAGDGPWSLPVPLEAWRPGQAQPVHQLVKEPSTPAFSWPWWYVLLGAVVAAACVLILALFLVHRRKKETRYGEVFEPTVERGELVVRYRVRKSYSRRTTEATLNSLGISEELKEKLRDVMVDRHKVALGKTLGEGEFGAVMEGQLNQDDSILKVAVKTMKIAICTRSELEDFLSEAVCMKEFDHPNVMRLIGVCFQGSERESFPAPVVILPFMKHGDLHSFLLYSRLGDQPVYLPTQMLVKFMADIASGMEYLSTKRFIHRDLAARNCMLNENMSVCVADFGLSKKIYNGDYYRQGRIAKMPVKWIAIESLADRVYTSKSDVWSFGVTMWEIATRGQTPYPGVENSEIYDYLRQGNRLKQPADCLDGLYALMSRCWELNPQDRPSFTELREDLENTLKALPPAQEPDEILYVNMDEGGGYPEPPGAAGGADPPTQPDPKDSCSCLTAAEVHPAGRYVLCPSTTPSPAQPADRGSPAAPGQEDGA
Method: Axl Autophosphorylation Assay
Autophosphorylation of Axl was carried out by incubating the recombinant Axl protein (Life Technologies, PV4275) in buffer containing 50 mM Tris, pH7.5, 0.2 mg/ml Axl, 5 mM ATP, 20 mM MgCl2 and 2 mM DTT at room temperature for 1 hour.
as §1, with “reaction.” for “reaction. The plate was protected from light and incubated at room temperature for 60 min.”

phosphor-Axl [4] = molecular target: T2, phosphor-Axl; details: data disclosed in U.S. Pat. No. 9,981,975; cited from earlier work
c-Mer [5] = molecular target: T1, c-Mer; details: data disclosed in U.S. Pat. No. 9,981,975; cited from earlier work

SMILES | solubility at 60 min ([1]; 0.2% (w/v) poloxamer 188 in water, aqueous with cosolvent or surfactant or cyclodextrin, 0.2% Poloxamer 188 in water) [µg/mL] | solubility at 60 min ([1]; 0.2% (w/v) poloxamer 407 in water, aqueous with cosolvent or surfactant or cyclodextrin, 0.2% Poloxamer 407 in water) [µg/mL] | solubility at 60 min ([1]; 0.2% (w/v) sodium lauryl sulfate in water, aqueous with cosolvent or surfactant or cyclodextrin, 0.2% SLS in water) [µg/mL] | solubility at 60 min ([1]; water without surfactant (control), water (no surfactant)) [µg/mL] | IC50 (c-Mer [2]) [nM] | IC50 (phosphor-Axl [3]) [nM] | IC50 (phosphor-Axl [4]) [nM] | IC50 (c-Mer [5]) [nM]
CC(C)C(=O)N1CCC(c2cc(-c3ccc(NC(=O)c4cn(C(C)C)c(=O)n(-c5ccccn5)c4=O)cc3)c3c(N)ncnn23)CC1.O=C(O)/C=C\C(=O)O [Compound I maleate, N-(4-(4-amino-7-(1-isobutyrylpiperidin-4-yl)pyrrolo[2,1-f][1,2,4]triazin-5-yl)phenyl)-1-isopropyl-2,4-dioxo-3-(pyridin-2-yl)-1,2,3,4-tetrahydropyrimidine-5-carboxamide maleate] | 18 | 9 | > 200 | 7 | < 5 | < 5 | – | –
CC(C)C(=O)N1CCC(c2cc(-c3ccc(NC(=O)c4cn(C(C)C)c(=O)n(-c5ccccn5)c4=O)cc3)c3c(N)ncnn23)CC1 [Compound I trifluoroacetic acid salt] | – | – | – | – | – | – | < 5 | < 5
